This note sets out measurements from paper PMC9946977, “Identification of linderalactone as a natural inhibitor of SHP2 to ameliorate CCl4-induced liver fibrosis” (Frontiers in Pharmacology, 2023).

This experiment deals with T1, SHP2-PTP K366A/Q510A double mutant (Homo sapiens, UniProt Q06124, K366A/Q510A).
T1 construct: Human SHP2 PTP domain (A237–I529) expression constructs; His-tag; made in house; host or cells: E. coli BL21 (DE3)
T1 sequence (Q06124 237-529 K366A/Q510A): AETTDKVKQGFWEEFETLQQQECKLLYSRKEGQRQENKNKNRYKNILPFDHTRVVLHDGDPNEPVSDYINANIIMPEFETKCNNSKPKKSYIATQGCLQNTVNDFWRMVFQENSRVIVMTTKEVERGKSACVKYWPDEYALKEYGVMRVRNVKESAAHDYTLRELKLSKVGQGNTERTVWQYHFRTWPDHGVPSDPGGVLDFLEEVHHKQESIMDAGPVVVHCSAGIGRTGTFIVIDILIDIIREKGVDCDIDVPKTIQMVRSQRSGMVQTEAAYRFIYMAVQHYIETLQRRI
Nature of the experiment: BLI assay, SHP2-PTP K366A/Q510A double mutant. The format is binding. The method, then:
Human SHP2 PTP domain (A237–I529) expression constructs were engineered by cloning PTPN11 (NP_002825.3) into the pET30 plasmid with a His-tag to support further protein purification. The K366A/Q510A double mutation was introduced into the wild-type template using a site-directed mutagenesis kit (E0554S; New England Biolabs). The expression constructs were sequenced and transformed into BL21 (DE3)-competent cells. E. coli cells were grown at 37°C in an LB culture medium in the presence of […] kanamycin until the OD600 reached 1.0. The medium was then cooled to 18°C and 1 mM isopropyl ß-D-1-thiogalactopyranoside (IPTG) was added to induce protein expression overnight.
Cell pellets were collected and suspended in a buffer of 50 mM Tris-HCl (Ph = 8.5), 150 mM NaCl supplemented with 10% glycerol, and lysed by homogeniser (JN-BIO, China). […]
The BLI assay was performed using a FortéBio Octet 96 system. […] After equilibrium, the kinetics of the LIN and SHP2-PTP association were analysed by soaking the SSA sensors in a compound solution with various LIN concentrations for 300 s (6.25, 12.5, 25, 50, 100, and 200 μM), followed by 300 s of dissociation in the same HEPES buffer. The equilibrium constant (KD) values were assessed using the FortéBio data analysis software by fitting the kinetic data using a 1:1 binding model.

On to `C/C1=C\CCC2=C[C@@H](OC2=O)c2c(C)coc2C1` [LIN, linderalactone], for which the BLI response value entry (200 μM LIN) is given as “lower than 0.2”. In addition, under “BLI”, the “effect of K366A/Q510A mutation on binding affinity between LIN and SHP2-PTP” value was “significantly eliminated”.
